Assay results reported in patent US20220251091A1, “AMORPHOUS UMBRALISIB MONOTOSYLATE” (Johnson Matthey Public Limited Company, priority 2019, published 2022).

Columns and labels:
[1] = XRPD of the sample after DVS; type: physicochemical
Experimental: (§1) XRPD patterns are obtained using a Bruker D8 Advance equipped with a Cu Kα radiation source (λ=1.54 Å), a 9-position sample holder and a LYNXEYE super speed detector. Samples are placed on zero-background, silicon plate holders for analysis. One skilled in the art would recognize that the ° 20 values and the relative intensity values are generated by performing a peak search on the measured data and the d-spacing values are calculated by the instrument from the ° 20 values using Bragg's equation. One skilled in the art would further recognize that the relative intensity for the measured peaks may vary as a result of sample preparation, orientation and instrument used, for example.
(§2) DVS samples (5-10 mg) are analyzed using a TA Instruments Q5000 SA powerful dynamic vapor sorption analyzer. The relative humidity is started at about 50% and adjusted to between about 0-90% humidity with about a 10% increase or decrease in humidity for each step for 3 cycles. The weight of the sample is continuously monitored and recorded.

[2] = Dynamic vapor sorption (DVS); type: physicochemical; conditions: for hygroscopicity by DVS: 3 cycles
Experimental: as §2

[3] = XRPD after storage at about 40° C. under vacuum for about two weeks; type: physicochemical
Experimental: as §1

PI3K-delta = target: T1, PI3K-delta (Homo sapiens, UniProt O00329); conditions: Phase 2 trial, relapsed/refractory marginal zone lymphoma; cited from earlier work
T1 construct: host or cells: patients (clinical trial)
T1 sequence (O00329 whole entry): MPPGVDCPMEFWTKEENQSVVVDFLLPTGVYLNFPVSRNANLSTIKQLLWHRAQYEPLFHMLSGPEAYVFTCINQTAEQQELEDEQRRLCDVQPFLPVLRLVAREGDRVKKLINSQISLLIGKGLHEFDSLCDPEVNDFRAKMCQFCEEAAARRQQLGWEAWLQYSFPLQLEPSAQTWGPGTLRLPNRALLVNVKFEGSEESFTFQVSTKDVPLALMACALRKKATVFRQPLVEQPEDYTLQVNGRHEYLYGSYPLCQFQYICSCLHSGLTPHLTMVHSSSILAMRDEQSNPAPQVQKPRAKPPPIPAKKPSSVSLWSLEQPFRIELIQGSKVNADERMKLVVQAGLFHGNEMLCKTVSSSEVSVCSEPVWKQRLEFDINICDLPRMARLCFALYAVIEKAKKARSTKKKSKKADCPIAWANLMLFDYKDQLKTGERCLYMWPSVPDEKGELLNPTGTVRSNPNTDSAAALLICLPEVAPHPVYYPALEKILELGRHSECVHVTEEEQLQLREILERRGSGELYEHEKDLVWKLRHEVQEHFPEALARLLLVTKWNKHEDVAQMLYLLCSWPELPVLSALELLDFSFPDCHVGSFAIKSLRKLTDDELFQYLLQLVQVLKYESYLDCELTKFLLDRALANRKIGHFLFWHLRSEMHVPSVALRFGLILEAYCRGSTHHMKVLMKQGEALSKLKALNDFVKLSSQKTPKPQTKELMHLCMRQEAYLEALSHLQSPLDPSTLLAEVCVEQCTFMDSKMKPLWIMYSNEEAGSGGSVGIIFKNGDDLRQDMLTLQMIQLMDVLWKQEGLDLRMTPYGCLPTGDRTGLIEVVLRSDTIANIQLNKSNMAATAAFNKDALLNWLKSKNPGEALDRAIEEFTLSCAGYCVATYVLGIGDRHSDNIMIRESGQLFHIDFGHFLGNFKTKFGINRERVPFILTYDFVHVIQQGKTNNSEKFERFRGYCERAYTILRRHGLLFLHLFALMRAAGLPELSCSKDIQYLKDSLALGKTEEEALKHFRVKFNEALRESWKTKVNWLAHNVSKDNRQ
T1 sequence (P27986 whole entry partner): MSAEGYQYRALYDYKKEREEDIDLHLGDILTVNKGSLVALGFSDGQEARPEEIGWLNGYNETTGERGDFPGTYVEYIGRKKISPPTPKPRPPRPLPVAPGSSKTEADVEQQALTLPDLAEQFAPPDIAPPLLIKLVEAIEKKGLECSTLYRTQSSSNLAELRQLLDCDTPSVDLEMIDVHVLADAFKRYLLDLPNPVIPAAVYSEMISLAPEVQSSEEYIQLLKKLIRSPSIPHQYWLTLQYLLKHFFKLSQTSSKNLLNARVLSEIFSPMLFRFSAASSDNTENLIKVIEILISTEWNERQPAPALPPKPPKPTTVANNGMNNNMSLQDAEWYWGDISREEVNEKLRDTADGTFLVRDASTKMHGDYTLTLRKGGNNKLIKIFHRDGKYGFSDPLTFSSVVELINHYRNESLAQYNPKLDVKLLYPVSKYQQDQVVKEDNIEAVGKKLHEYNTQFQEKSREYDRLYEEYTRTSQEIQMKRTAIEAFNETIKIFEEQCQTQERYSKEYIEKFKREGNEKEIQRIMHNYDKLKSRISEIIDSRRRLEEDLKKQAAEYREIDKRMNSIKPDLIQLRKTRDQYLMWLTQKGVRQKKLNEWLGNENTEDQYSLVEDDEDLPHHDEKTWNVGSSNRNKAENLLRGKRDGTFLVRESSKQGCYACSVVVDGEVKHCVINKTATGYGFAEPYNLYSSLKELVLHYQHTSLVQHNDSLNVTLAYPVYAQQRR

| Structure (SMILES) | solid form by XRPD after DVS [1] | hygroscopicity by DVS [2] | weight change between about 0-90% relative humidity [2] [%] | weight change in the sample over three cycles [2] [%] | solid form by XRPD after storage [3] | PI3K-delta inhibition in patients (PI3K-delta) | tolerability in patients (PI3K-delta) |
| --- | --- | --- | --- | --- | --- | --- | --- |
| CC(C)Oc1ccc(-c2nn([C@@H](C)c3oc4ccc(F)cc4c(=O)c3-c3cccc(F)c3)c3ncnc(N)c23)cc1F [Example 1, amorphous umbralisib monotosylate] | still amorphous | hygroscopic | ~4 | < 1 | – | – | – |
| CC(C)Oc1ccc(-c2nn([C@@H](C)c3oc4ccc(F)cc4c(=O)c3-c3cccc(F)c3)c3ncnc(N)c23)cc1F [Example 2, amorphous umbralisib monotosylate] | still amorphous | hygroscopic | ~4 | ~0.5 | still amorphous | – | – |
| CC(C)Oc1ccc(-c2nn([C@@H](C)c3oc4ccc(F)cc4c(=O)c3-c3cccc(F)c3)c3ncnc(N)c23)cc1F [umbralisib, (S)-2-(1-(4-amino-3-(3-fluoro-4-isopropoxyphenyl)-1H-pyrazolo[3,4-d]pyrimidin-1-yl)ethyl)-6-fluoro-3-(3-fluorophenyl)-4H-chromen-4-one] | – | – | – | – | – | effective PI3K-delta inhibition | well-tolerated |
